Values after ≈ are worked out from the molar mass of the structure shown.
Key:
[1] = test system: Escherichia coli; test: Treatment of colibacillosis animal model (mice); settings: control groups, 30 mice; hypericin injection 1.0 mL/mouse intramuscular
[2] = test system: pathogenic Escherichia coli; test: Treatment of chicken colibacillosis (sick chickens); settings: 2.00 mg/Kg intramuscular, 2 times/d, 1 d, 50 chickens
[3] = test system: Escherichia coli (E. coli) C4403; test: Minimal inhibitory concentration, double dilution method, Escherichia coli; settings: for minimal inhibitory concentration: Escherichia coli, no growth on agar plate after 24 hours
[4] = test system: Staphylococcus aureus (S. aureus) C26112; test: Minimal inhibitory concentration, double dilution method, Staphylococcus aureus; settings: for minimal inhibitory concentration: Staphylococcus aureus, no growth on agar plate after 24 hours
[5] = 0.2 μg/ml, 24 hours, eye observation of turbidity
[6] = 0.4 μg/ml, 24 hours, eye observation of turbidity
[7] = 0.8 μg/ml, 24 hours, eye observation of turbidity
[8] = 3.2 μg/ml, 24 hours, eye observation of turbidity
[9] = 6.4 μg/ml, 24 hours, eye observation of turbidity
[10] = 12.8 μg/ml, 24 hours, eye observation of turbidity
[11] = 25.6 μg/ml, 24 hours, eye observation of turbidity

Cc1cc(O)c2c(=O)c3c(O)cc(O)c4c5c(O)cc(O)c6c(=O)c7c(O)cc(C)c8c1c2c(c34)c(c78)c65 [Hypericin, hypericin]
Cure (number of mice) [1]: 10 | Cure rate (%) [1]: 33.3% | Effective (number of mice) [1]: 27 | Effective rate (%) [1]: 90% | Cure rate (%) [2]: 70% | Effective rate (%) [2]: 80% | Total amount of cured ones [2]: 35 | Total amount of effective ones [2]: 40 | Cure rate (%) ([2]; listed as hypericin): 80% | bacterial growth in tube 8 [3, 5]: + | bacterial growth in tube 7 [3, 6]: + | bacterial growth in tube 6 [3, 7]: + | bacterial growth in tube 4 [3, 8]: − | bacterial growth in tube 3 [3, 9]: − | bacterial growth in tube 2 [3, 10]: − | bacterial growth in tube 1 [3, 11]: − | minimal inhibitory concentration [3]: 0.4 µg/mL (≈ 0.793 µM) | minimal inhibitory concentration ([3]; listed as 2): 6.4 µg/mL (≈ 12.7 µM) | bacterial growth in tube 8 [4, 5]: + | bacterial growth in tube 7 [4, 6]: + | bacterial growth in tube 6 [4, 7]: + | bacterial growth in tube 4 [4, 8]: − | bacterial growth in tube 3 [4, 9]: − | bacterial growth in tube 2 [4, 10]: − | bacterial growth in tube 1 [4, 11]: − | minimal inhibitory concentration [4]: 0.8 µg/mL (≈ 1.59 µM) | minimal inhibitory concentration ([4]; listed as 2): 6.4 µg/mL (≈ 12.7 µM)

— US9808536B2, “Hypericin albumin nanoparticle-Escherichia coli serum antibody complex and preperation method and application thereof” (LANZHOU INSTITUTE OF HUSBANDRY AND PHARMACEUTICAL SCIENCES …, priority 2015, dated 2017)
